“And” between values parts separate entries of the source, which are not always exact repeats. Identical values can stand only once.
Tested on: 233499-124-R-J3-PDC complex spheroid growth
Assay: Anticancer human tumor 233499-124-R-J3-PDC patient-derived colon adenocarcinoma cell line growth inhibition [AhR]
Conditions: for viability, T/C: stronger effect = lower value
Excerpt: Multicellular complex tumor spheroid response to aryl hydrocarbon receptor antagonists in combination with a variety of drugs and investigational agents in selected tumor cell lines
The current study was undertaken to assess response to aryl hydrocarbon receptor antagonists in combination with standard-of-care drugs and investigational agents in solid tumor complex spheroid models. Complex spheroids include a stromal component modeled by human endothelial cells (HUVEC) and fibroblasts modeled by human mesenchymal stem cells (MSCs). The concentration ranges selected for each drug and investigational agent were based upon clinically achievable concentrations if the clinical Cmax of the agent was known.
Compounds. The drugs and investigational agents: BAY 2416964 (NSC825713), GNF351 (NSC835774), CH-223191 (NSC835775), CPI-455 (NSC825282), aza-TdCyd (NSC777586), decitabine (NSC127716), belinostat (NSC758774), entinostat (NSC756642), pevonedistat (NSC761192), tazemetostat (NSC777109), talazoparib (NSC765396), olaparib (NSC753686), selinexor (NSC780203), nedisertib (M3814, NSC802822), bortezomib (NSC756655), venetoclax (NSC766270), doxorubicin (NSC123127), elimusertib (BAY189344, NSC800525), ceralasertib (AZD6738, NSC777638), TAK-243 (NSC785004), alisertib (NSC759677), etoposide (NSC141540), topotecan (NSC609699), eribulin (NSC707389), gemcitabine (NSC613327), carboplatin (NSC241240), cisplatin (NSC119875), and SN-38 (NSC673596) were obtained from the National Cancer Institute (NCI) Developmental Therapeutics Program Chemical Repository (32). The FDA-approved anticancer drug set is available from the Developmental Therapeutics Program at https://dtp.cancer.gov/organization/dscb/obtaining/available plates.htm. […] The stock solutions were prepared in dimethyl sulfoxide (DMSO, Sigma-Aldrich, St. Louis, MO, cat. D2650), except for the platinum compounds which were prepared in saline (Quality Biological, Gaithersburg, MD, cat. 114-055-101), at 800-fold the tested concentration and stored at -70 degrees C prior to their use. All drugs and investigational agents were tested over a range starting from a high concentration at or near the clinical Cmax and decreasing in half-log increments. If the clinical Cmax for an agent had not been determined, the highest concentration tested was 10 microM (Table 1).
Cell Culture. All cells were maintained in an incubator at 37 degrees C and 5% CO2 with 95% humidity. The PDC lines were cultured according to standard operating procedures established by the NCI PDMR (https://pdmr.cancer.gov). Briefly, all PDCs were thawed and cultured in Matrigel-coated flasks prepared with a working solution of 1X Ham's F-12 nutrient mix, without supplementation (Invitrogen, Waltham, MA, cat. 11765054), 100 U/mL penicillin-streptomycin (Invitrogen, cat. 15140122), and 2.5% Matrigel (Corning Inc., Corning, NY, cat. 354248) for the first three passages. All PDCs were cultured in complete DMEM/F-12 media containing advanced DMEM/F-12 (Invitrogen, cat. 12634028), 4.9% defined fetal bovine serum, heat inactivated (HyClone Laboratories Inc., Logan, UT, cat. SH30070.03HI), 389 ng/mL hydrocortisone (Sigma-Aldrich, cat. H4001), 9.7 ng/mL human EGF recombinant protein (Invitrogen, cat. PHG0313), 23.4 microg/mL adenine (Sigma-Aldrich, cat. A2786), 97.3 U/mL penicillin-streptomycin (Invitrogen, cat. 15140122), 1.9 mM L-glutamine (Invitrogen, cat. 25030081), and 9.7 microM Y-27632 dihydrochloride (Tocris Bioscience, Bristol, United Kingdom, cat. 1254). The PDCs were cultured in complete DMEM/F12 media without 10 microM Y-27632 dihydrochloride for at least two passages prior to the screen. The established cell lines NCI-H1341 and […] were cultured in DMEM/F-12, HEPES (Invitrogen, cat. 11330032), 5% defined fetal bovine serum (HyClone Laboratories Inc., cat. SH30070.03), ITS premix universal culture supplement [insulin (5 microg/mL), transferrin (5 microg/mL), and selenious acid (5 ng/mL)] […]

[1] = curve of first compound, second compound 0.1 µM
[2] = curve of first compound, second compound 0.316 µM
[3] = curve of first compound, second compound 1 µM
[4] = curve of first compound, second compound 3.16 µM
[5] = curve of first compound, second compound 10 µM
[6] = second compound 0.1 µM, first compound 0.0316 µM
[7] = second compound 0.1 µM, first compound 0.1 µM
[8] = second compound 0.1 µM, first compound 0.316 µM
[9] = second compound 0.1 µM, first compound 1 µM
[10] = second compound 0.1 µM, first compound 3.16 µM
[11] = second compound 0.1 µM, first compound 10 µM
[12] = second compound 0.316 µM, first compound 0.0316 µM
[13] = second compound 0.316 µM, first compound 0.1 µM
[14] = second compound 0.316 µM, first compound 0.316 µM
[15] = second compound 0.316 µM, first compound 1 µM
[16] = second compound 0.316 µM, first compound 3.16 µM
[17] = second compound 0.316 µM, first compound 10 µM
[18] = second compound 1 µM, first compound 0.0316 µM
[19] = second compound 1 µM, first compound 0.1 µM
[20] = second compound 1 µM, first compound 0.316 µM
[21] = second compound 1 µM, first compound 1 µM
[22] = second compound 1 µM, first compound 3.16 µM
[23] = second compound 1 µM, first compound 10 µM
[24] = second compound 3.16 µM, first compound 0.0316 µM
[25] = second compound 3.16 µM, first compound 0.1 µM
[26] = second compound 3.16 µM, first compound 0.316 µM
[27] = second compound 3.16 µM, first compound 1 µM
[28] = second compound 3.16 µM, first compound 3.16 µM
[29] = second compound 3.16 µM, first compound 10 µM
[30] = second compound 10 µM, first compound 0.0316 µM
[31] = second compound 10 µM, first compound 0.1 µM
[32] = second compound 10 µM, first compound 0.316 µM
[33] = second compound 10 µM, first compound 1 µM
[34] = second compound 10 µM, first compound 3.16 µM
[35] = second compound 10 µM, first compound 10 µM
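Also: spheroids exposed to agents for seven days before reading.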

| Structure (SMILES) | IC50 [1] [µM] | IC50 [2] [µM] | IC50 [3] [µM] | IC50 [4] [µM] | IC50 [5] [µM] | viability, T/C [6] [%] | viability, T/C [7] [%] | viability, T/C [8] [%] | viability, T/C [9] [%] | viability, T/C [10] [%] | viability, T/C [11] [%] | viability, T/C [12] [%] | viability, T/C [13] [%] | viability, T/C [14] [%] | viability, T/C [15] [%] | viability, T/C [16] [%] | viability, T/C [17] [%] | viability, T/C [18] [%] | viability, T/C [19] [%] | viability, T/C [20] [%] | also measured |
| --- | --- | --- | --- | --- | --- | --- | --- | --- | --- | --- | --- | --- | --- | --- | --- | --- | --- | --- | --- | --- | --- |
| O=C(c1cc(Cc2n[nH]c(=O)c3ccccc23)ccc1F)N1CCN(C(=O)C2CC2)CC1 + CC(CO)NC(=O)c1cc(-c2ccc(Cl)cc2)nn(-c2cnn(C)c2)c1=O | > 10 | > 10 | > 10 | > 10 | > 10 | 92.2 | 112 | 102 | 103 | 97.6 | 103 | 99.9 | 92.2 | 95.1 | 102 | 91.2 | 104 | 91.1 | 98.9 | 102 | viability, T/C [21]: 101%; viability, T/C [22]: 89.2%; viability, T/C [23]: 109%; viability, T/C [24]: 100%; viability, T/C [25]: 84%; viability, T/C [26]: 105%; viability, T/C [27]: 87.6%; viability, T/C [28]: 94.9%; viability, T/C [29]: 89.7%; viability, T/C [30]: 90.1%; viability, T/C [31]: 90%; viability, T/C [32]: 80.8%; viability, T/C [33]: 85%; viability, T/C [34]: 85.5%; viability, T/C [35]: 67.5% |
| O=C(C=Cc1cccc(S(=O)(=O)Nc2ccccc2)c1)NO | – | – | – | – | – | – | – | – | – | – | – | – | – | – | – | – | – | – | – | – | viability, T/C (compound 0.0316 µM): 98.2% and 96.2% and 89.6%; viability, T/C (compound 0.1 µM): 112% and 105% and 102%; viability, T/C (compound 0.316 µM): 97.2% and 109% and 111%; viability, T/C (compound 1 µM): 115% (2×) and 109%; viability, T/C (compound 3.16 µM): 95.7% and 101% and 82.7%; viability, T/C (compound 10 µM): 19.4% and 12.2% and 13.2%; IC50 (curve of compound): 6.32 µM and 6.14 µM and 5.43 µM |
| CC1(C)CCC(CN2CCN(c3ccc(C(=O)NS(=O)(=O)c4ccc(NCC5CCOCC5)c([N+](=O)[O-])c4)c(Oc4cnc5[nH]ccc5c4)c3)CC2)=C(c2ccc(Cl)cc2)C1 + Cc1cncc(-c2nc(NCCc3c[nH]c4ccccc34)c3ncn(C(C)C)c3n2)c1 | > 10 | > 10 | > 10 | > 10 | < 0.0316 | 103 | 97.9 | 92.6 | 104 | 100 | 109 | 82 | 95 | 88.2 | 95.7 | 96.8 | 96.3 | 94.6 | 84.2 | 85.8 | viability, T/C [21]: 82%; viability, T/C [22]: 85.2%; viability, T/C [23]: 89.3%; viability, T/C [24]: 71.6%; viability, T/C [25]: 68.5%; viability, T/C [26]: 76.5%; viability, T/C [27]: 63.5%; viability, T/C [28]: 70.3%; viability, T/C [29]: 81.7%; viability, T/C [30]: 12%; viability, T/C [31]: 9.79%; viability, T/C [32]: 7.48%; viability, T/C [33]: 23.7%; viability, T/C [34]: 8.38%; viability, T/C [35]: 15.6% |
| COc1cc(Nc2ncc3c(n2)-c2ccc(Cl)cc2C(c2c(F)cccc2OC)=NC3)ccc1C(=O)O + Cc1cncc(-c2nc(NCCc3c[nH]c4ccccc34)c3ncn(C(C)C)c3n2)c1 | > 10 | > 10 | > 10 | > 10 | < 0.0316 | 81 | 71.7 | 81.5 | 100 | 89 | 84.2 | 84.8 | 56.9 | 83.2 | 76.9 | 75.6 | 82.5 | 78 | 68.4 | 77.8 | viability, T/C [21]: 77.9%; viability, T/C [22]: 70.1%; viability, T/C [23]: 87.6%; viability, T/C [24]: 60.5%; viability, T/C [25]: 50.9%; viability, T/C [26]: 76.8%; viability, T/C [27]: 67.2%; viability, T/C [28]: 58%; viability, T/C [29]: 71.7%; viability, T/C [30]: 8.18%; viability, T/C [31]: 22.4%; viability, T/C [32]: 26.9%; viability, T/C [33]: 10.4%; viability, T/C [34]: 29.2%; viability, T/C [35]: 39.9% |
